Results on eight compounds are retold here after ChEMBL document CHEMBL1127680, “Specific inhibitors of ileal bile acid transport” (J Med Chem, 1994).

Format in all cases: functional
The species entered for assay [1] is Oryctolagus cuniculus. In words: The compound was evaluated for the inhibition of Na+-dependent [3H]taurocholate uptake into ileal brush border membrane vesicles in rabbit, by 75%.
Assay [2] is filed under the species Oryctolagus cuniculus. In words: The compound was evaluated for the inhibition of Na+-dependent [3H]taurocholate uptake into ileal brush border membrane vesicles in rabbit, by 50%.
Assay [3] concerns Rattus norvegicus. Put plainly: The compound was evaluated for the percentage inhibition of ileal taurocholate transport, in anesthetized wistar rats at 12 min.
Assay [4] has as its system Rattus norvegicus. In words: The compound was evaluated for the percentage inhibition of ileal taurocholate transport, in anesthetized wistar rats at 30 min.
For assay [5], the system named is Rattus norvegicus. Put plainly: The compound was evaluated for the percentage inhibition of ileal taurocholate transport, in anesthetized wistar rats at 60 min.
The species named for assay [6] is Oryctolagus cuniculus. Put plainly: The compound was evaluated for the inhibition of Na+-dependent [3H]taurocholate uptake into ileal brush border membrane vesicles in rabbit, by 25%.
Assay [7] is filed under the species Oryctolagus cuniculus. Put plainly: The compound was evaluated for the inhibition of Na+-dependent [3H]taurocholate uptake into ileal brush border membrane vesicles in rabbit; by 75%.
The species named for assay [8] is Oryctolagus cuniculus. Put plainly: The compound was evaluated for the inhibition of Na+ dependent [3H]taurocholate uptake into ileal brush border membrane vesicles in rabbit; by 25%.
For assay [9], the species on record is Oryctolagus cuniculus. In words: The compound was evaluated for the inhibition of Na+-dependent [3H]taurocholate uptake into ileal brush border membrane vesicles in rabbit; by 50%.
The subject of assay [10] is Rattus norvegicus. In words: The compound was evaluated for the percentage inhibition of ileal taurocholate transport; in anesthetized wistar rats at 12 min.

Broadly, the IC75 is the point of the concentration-response curve where the effect stands at 75%. Higher therefore signals a need for much substance. As usually defined, the IC50 is the concentration at which inhibition is half-maximal. One may read the Inhibition as the change of the read-out against control, counted positive when it falls. Read a high Inhibition as a strong effect. For orientation: IC25 means the point of the concentration-response curve where the effect stands at 25%.

Structures are written as SMILES. Bounds are passed on as bounds.

In turn, `CC(CCC(=O)O)C1CC[C@H]2[C@@H]3[C@H](O)C[C@@H]4C[C@@H](OCCNC(=O)CCC(=O)NCCCNC(=O)CCC(C)C5CC[C@H]6[C@@H]7[C@H](O)C[C@@H]8C[C@H](OC(c9ccccc9)c9ccccc9)CC[C@]8(C)[C@H]7C[C@H](O)[C@]56C)CC[C@]4(C)[C@H]3C[C@H](O)[C@]12C` (stereo partly specified) gave an IC75 in assay [1] of 30 µM. In assay [2], this compound showed an IC50 of 19 µM. For the same compound, the Inhibition in [3] is given as 26%; in [4], 16%; in assay [5] it was 10%. In assay [6], this compound displayed an IC25 of 9 µM.

Turning to `CC(CCC(=O)O)C1CC[C@H]2[C@@H]3[C@H](O)C[C@@H]4C[C@@H](NC(=O)CCC(C)C5CC[C@H]6[C@@H]7CC[C@@H]8C[C@H](O)CC[C@]8(C)[C@H]7CC[C@]56C)CC[C@]4(C)[C@H]3C[C@H](O)[C@]12C` (stereo partly specified), in assay [1], the IC75 was > 250 µM. Also, in assay [2], the IC50 is > 250 µM. Moreover, it took 176 µM to reach the 25% level in assay [6] (IC25).

Regarding `CC(CCC(=O)NCCO[C@H]1CC[C@@]2(C)[C@@H](C1)C[C@@H](O)[C@@H]1[C@@H]2C[C@H](O)[C@]2(C)C(C(C)CCC(=O)O)CC[C@@H]12)C1CC[C@H]2[C@@H]3[C@H](O)C[C@@H]4C[C@H](O)CC[C@]4(C)[C@H]3C[C@H](O)[C@]12C` (stereo partly specified), in [7], the 75% effect level (IC75) was put at 57 µM. In addition, in assay [8], the 25% effect level (IC25) was put at 20 µM. The IC50 in assay [9] was 36 µM. The Inhibition in assay [4] is 23%; in assay [5], 18%; in assay [10], 23%.

`C[C@H](CCC(=O)O)[C@H]1CC[C@H]2[C@@H]3[C@H](O)C[C@@H]4C[C@H](O)CC[C@]4(C)[C@H]3C[C@H](O)[C@]12C`: the IC75 in assay [1] was determined as 152 µM. This compound gave an IC25 in assay [6] of 40 µM.

`C[C@H](CCC(=O)NCCS(=O)(=O)O)[C@H]1CC[C@H]2[C@@H]3[C@H](O)C[C@@H]4C[C@H](O)CC[C@]4(C)[C@H]3CC[C@]12C` came in with an IC75 in assay [1] of 61 µM. This compound also had an IC25 in [6] of 13 µM.

Consider `CC(CCC(=O)O)C1CC[C@H]2[C@@H]3[C@H](O)C[C@@H]4C[C@@H](OCCNC(=O)CCC(C)C5CC[C@H]6[C@@H]7CC[C@@H]8C[C@H](O)CC[C@]8(C)[C@H]7CC[C@]56C)CC[C@]4(C)[C@H]3C[C@H](O)[C@]12C` (stereo partly specified), for which the 75% effect concentration (IC75) in assay [1] is > 250 µM. In addition, the IC50 in [2] was > 250 µM. Also, the IC25 in [6] worked out at 154 µM.

On to `CC(CCC(=O)O)C1CC[C@H]2[C@@H]3[C@H](O)C[C@@H]4C[C@@H](OCCNC(=O)CCC(C)C5CC[C@H]6[C@@H]7[C@H](O)C[C@@H]8C[C@H](OC(c9ccccc9)c9ccccc9)CC[C@]8(C)[C@H]7C[C@H](O)[C@]56C)CC[C@]4(C)[C@H]3C[C@H](O)[C@]12C` (stereo partly specified), for which the IC75 in assay [1] is > 250 µM. The IC50 in [2] is > 250 µM. This compound returned an IC25 in assay [6] of 125 µM.

The compound `CC(CCC(=O)N[C@H]1CC[C@@]2(C)[C@@H](C1)C[C@@H](O)[C@@H]1[C@@H]2C[C@H](O)[C@]2(C)C(C(C)CCC(=O)O)CC[C@@H]12)C1CC[C@H]2[C@@H]3[C@H](O)C[C@@H]4C[C@H](O)CC[C@]4(C)[C@H]3C[C@H](O)[C@]12C` (stereo partly specified) returned an IC75 in assay [1] of 84 µM. In [2], this compound displayed an IC50 of 48 µM. Further, the Inhibition in assay [3] is on record as 51%; in [4], 59%; in [5] it was 54%. Moreover, the concentration for an effect of 25% (IC25) in assay [6] is 24 µM.
